Source: patent US20230416329A1, “A PEPTIDE WITH DISULFIDE BONDS AND INHIBITORY ACTIVITY AGAINST SERINE PROTEASES, DERIVED HYBRID PEPTIDES THEREOF, AND USES THEREOF” (INSTITUTE OF MATERIA MEDICA , CHINESE ACADEMY OF MEDICAL …, priority 2020, published 2023)
Bridge positions count the residues as written; N and C are the ends. Ends that are not written are not given here. PEG = not defined here

Columns and labels:
normal ICR mice [1] = experiment: In vivo hypoglycemic activity of GLP-1 analogues, duodenal administration, oral glucose loading; set-up: species or system mouse; conditions: normal ICR mice, 10 μmol/kg duodenal, glucose 2 g/kg by gavage
Procedure: FIG. 22. In vivo hypoglycemic activities of GLP-1 analogues by duodenal administration. Normal ICR mice were anesthetized with inhalation of ether, and the duodenum was surgically removed and injected with GLP-1 and its analogues or a corresponding volume of saline ([…], n=9-11), and finally the incision was sewed. After 15 min, glucose solution (2 g/kg) was administered by gavage, and blood was collected from the tail tips at 15, 30, and 60 min after glucose administration. Blood glucose was measured using glucose oxidase method, and blood glucose values and area under the blood glucose curve (AUC) were calculated at each timepoint.
Drug delivery technology can use enteric coating technology to achieve oral administration targeting the small intestine. In order to test the feasibility of direct small intestinal administration of GLP-1, the present invention designs duodenal administration. The experimental process is as follows: The day before the experiment, all of the animals were fasted for 15-16 hours with water ad libitum. On the day of the experiment, the animals were randomly divided according to body weight (n=9-11 or 14-15 for combined administration). Firstly, the blood was collected from the tail tip at 0 hours, and then the animals were anesthetized by inhaling ether. A small incision was made near the underside of the stomach using surgical scissors, and the duodenum was carefully removed and administered with GLP-1 analogs (SEQ ID NOs: 194-209, 10 μmol/kg) or saline. Finally, the wound was sutured. After 15 minutes, the glucose solution (2 g/kg) was administered by gavage, and the blood were collected from the tail tips at 15, 30, and 60 minutes after glucose administration. Blood glucose was measured using the glucose oxidase method. The blood glucose at each moment and area under the blood glucose-time curve (AUC) were calculated.
AUC mg×h/dL)=(BG0+BG15)×15/60+(BG15+BG30)×15/60+(BG30+BG60)×30/60. BG0, BG15, BG30, and BG60 represent blood glucose levels at 0, 15, 30, and 60 minutes after glucose loading, respectively.

normal ICR mice [2] = experiment: In vivo hypoglycemic activity of GLP-1 analogues, subcutaneous administration, oral glucose loading; set-up: species or system mouse; conditions: normal ICR mice, 1 μmol/kg s.c., glucose 2 g/kg by gavage
Procedure: FIG. 21. In vivo hypoglycemic activities of GLP-1 analogues by subcutaneous administration. Normal ICR mice were subcutaneously injected with GLP-1 and its analogues or corresponding volumes of saline (1.0 μmol/kg, n=10). After 30 min, glucose solution (2 g/kg) was administered by gavage, and blood was collected from the tail tip at 30, 60, and 120 min after glucose administration. Blood glucose was measured using glucose oxidase method, and blood glucose values and area under the blood glucose curve (AUC) were calculated at each timepoint.
The day before the experiment, all of the animals were fasted for 15-16 hours with water ad libitum. On the day of the experiment, the animals were randomly divided according to body weight (n=10). Firstly, the blood was collected from the tail tip at 0 hour, and then the animals were administered subcutaneously with GLP-1 analog (SEQ ID NOs: 194-201, 1 μmol/kg) or saline. After 30 minutes, the animals were administered by gavage with glucose solution (2 g/kg), and the blood was collected from the tail tip at 30, 60, and 120 minutes later. Blood glucose was measured using glucose oxidase method. The blood glucose and area under the blood glucose-time curve (AUC) were calculated.

| Substance | hypoglycemic activity, duodenal administration (in words) (normal ICR mice [1]) | hypoglycemic activity, subcutaneous injection (in words) (normal ICR mice [2]) |
| --- | --- | --- |
| Cys-Gly-Arg-Ala-Thr-Lys-Ser-Ile-Pro-Pro-Ile-Cys-Phe-Gly-Gly-Gln-Arg-Phe-Ser-Arg-Gly-Gly-His-Ala-Glu-Gly-Thr-Phe-Thr-Ser-Asp-Val-Ser-Ser-Tyr-Leu-Glu-Gly-Gln-Ala-Ala-Lys-Glu-Phe-Ile-Ala-Trp-Leu-Val-Lys-Gly-Arg-Gly-Gly-Lys (CGRATKSIPPICFGGQRFSRGGHAEGTFTSDVSSYLEGQAAKEFIAWLVKGRGGK; Synthetic construct BT9-N-GLP-1) [SEQ ID NO: 199] | did not influence the blood glucose levels | significantly reduced the blood glucose levels at 30 and 60 minutes after oral glucose loading and the AUC |
| Gly-Arg-Cys-Thr-Lys-Ser-Ile-Pro-Pro-Ile-Cys-Phe-Pro-Gly-Gly-Gln-Arg-Phe-Ser-Arg-Gly-Gly-His-Ala-Glu-Gly-Thr-Phe-Thr-Ser-Asp-Val-Ser-Ser-Tyr-Leu-Glu-Gly-Gln-Ala-Ala-Lys-Glu-Phe-Ile-Ala-Trp-Leu-Val-Lys-Gly-Arg-Gly-Gly-Lys (GRCTKSIPPICFPGGQRFSRGGHAEGTFTSDVSSYLEGQAAKEFIAWLVKGRGGK; Synthetic construct BT1-N-GLP-1) [SEQ ID NO: 195] | did not influence the blood glucose levels | significantly reduced the blood glucose levels at 30 and 60 minutes after oral glucose loading and the AUC |
| Gly-Gln-Arg-Phe-Ser-Arg-Gly-Gly-His-Ala-Glu-Gly-Thr-Phe-Thr-Ser-Asp-Val-Ser-Ser-Tyr-Leu-Glu-Gly-Gln-Ala-Ala-Lys-Glu-Phe-Ile-Ala-Trp-Leu-Val-Lys-Gly-Arg-Gly-Gly-Lys-Gly-Arg-Cys-Thr-Lys-Ser-Ile-Pro-Pro-Ile-Cys-Phe-Pro (GQRFSRGGHAEGTFTSDVSSYLEGQAAKEFIAWLVKGRGGKGRCTKSIPPICFP; Synthetic construct N-GLP-1-BT1) [SEQ ID NO: 197] | did not influence the blood glucose levels | significantly reduced the blood glucose levels at 30 and 60 minutes after oral glucose loading and the AUC |
| Gly-Gln-Arg-Phe-Ser-Arg-Gly-Gly-His-Ala-Glu-Gly-Thr-Phe-Thr-Ser-Asp-Val-Ser-Ser-Tyr-Leu-Glu-Gly-Gln-Ala-Ala-Lys-Glu-Phe-Ile-Ala-Trp-Leu-Val-Lys-Gly-Arg-Gly-Gly-Lys-Gly-Cys-Gly-Arg-Ala-Thr-Lys-Ser-Ile-Pro-Pro-Ile-Cys-Phe (GQRFSRGGHAEGTFTSDVSSYLEGQAAKEFIAWLVKGRGGKGCGRATKSIPPICF; Synthetic construct N-GLP-1-BT9) [SEQ ID NO: 201] | did not influence the blood glucose levels | significantly reduced the blood glucose levels at 30 and 60 minutes after oral glucose loading and the AUC |
| PEG-Gly-Ile-Pro-Ile-Gly-Gly-His-Ala-Glu-Gly-Thr-Phe-Thr-Ser-Asp-Val-Ser-Ser-Tyr-Leu-Glu-Gly-Gln-Ala-Ala-Lys-Glu-Phe-Ile-Ala-Trp-Leu-Val-Lys-Gly-Arg-Gly-Gly-Lys-Gly-Cys-Gly-Arg-Ala-Thr-Lys-Ser-Ile-Pro-Pro-Ile-Cys-Phe ({PEG}-GIPIGGHAEGTFTSDVSSYLEGQAAKEFIAWLVKGRGGKGCGRATKSIPPICF; disulfide 41-52 (inferred); reading uncertain; also: printed as PEG-Gly-Ile-Pro-Ile-Gly-Gly-His-Ala-Glu-Gly-Thr-Phe-Thr-Ser-Asp-Val-Ser-Ser-Tyr-Leu-Glu-Gly-Gln-Ala-Ala-Lys-Glu-Phe-Ile-Ala-Trp-Leu-Val-Lys-Gly-Arg-Gly-Gly-Lys-Gly-Cys-Gly-Arg-Ala-Thr-Lys-Ser-Ile-Pro-Pro-Ile-Cys-Phe) [N-Terminal PEGylated SEQ ID NO: 200] | – | did not show any significant differences in their hypoglycemic activity compared to the unmodified molecules |
| PEG-Phe-Cys-Thr-Tyr-Ser-Ile-Pro-Pro-Gln-Cys-Tyr-Gly-Gly-Ile-Pro-Ile-Gly-Gly-His-Ala-Glu-Gly-Thr-Phe-Thr-Ser-Asp-Val-Ser-Ser-Tyr-Leu-Glu-Gly-Gln-Ala-Ala-Lys-Glu-Phe-Ile-Ala-Trp-Leu-Val-Lys-Gly-Arg-Gly-Gly-Lys ({PEG}-FCTYSIPPQCYGGIPIGGHAEGTFTSDVSSYLEGQAAKEFIAWLVKGRGGK; disulfide 2-10 (inferred); reading uncertain; also: printed as PEG-Phe-Cys-Thr-Tyr-Ser-Ile-Pro-Pro-Gln-Cys-Tyr-Gly-Gly-Ile-Pro-Ile-Gly-Gly-His-Ala-Glu-Gly-Thr-Phe-Thr-Ser-Asp-Val-Ser-Ser-Tyr-Leu-Glu-Gly-Gln-Ala-Ala-Lys-Glu-Phe-Ile-Ala-Trp-Leu-Val-Lys-Gly-Arg-Gly-Gly-Lys) [N-Terminal PEGylated SEQ ID NO: 204] | – | did not show any significant differences in their hypoglycemic activity compared to the unmodified molecules |
